Where two headings read alike, the source gives them in different places. Residues, ends and D or L forms follow the SMILES beside them. No end group written: not given here.
What was measured:
Type in all cases: cell-based
[1] = tested on: Escherichia coli [KCTC 1682]
Description: (§1) The MICs of the peptides were measured by the Clinical and Laboratory Standards Institute (CLSI) broth microdilution method, as outlined in a previous study.^[ [26], [27] ^]
(§2) Minimal Inhibitory Concentrations (MICs): Bacteria were grown to mid-logarithmic phase and diluted in Mueller-Hinton broth (MHB) (Difco). The bacterial suspension (1×10^6 CFU/well) was added to a 96-well microtiter plate along with a two-fold serial dilution of samples. The plate was incubated at 37 °C for 24 hours and the bacterial growth inhibition was assessed by measuring the optical density using an ELISA plate reader. The minimum inhibitory concentration (MIC) was defined as the lowest concentration of samples that prevented visible bacterial growth.

[2] = tested on: Pseudomonas aeruginosa [KCTC 1637]
Description: as §1, §2

[3] = tested on: Staphylococcus aureus [KCTC1621]
Description: as §1, §2

[4] = tested on: Staphylococcus epidermidis [KCTC 1917]
Description: as §1, §2

[5] = CLSI broth microdilution in MHB, 1×10^6 CFU/well, 37 °C, 24 h, optical density

LNTPRPELSISQRLLIKNFILII-NH2 [LP14]
>128 µg/mL: Minimum inhibitory concentration (MIC), Escherichia coli [KCTC 1682] ([1]; KCTC 1682, 24 h) | Minimum inhibitory concentration (MIC), Pseudomonas aeruginosa [KCTC 1637] ([2]; KCTC 1637, 24 h) | Minimum inhibitory concentration (MIC), Staphylococcus aureus [KCTC1621] ([3]; KCTC1621, 24 h) | Minimum inhibitory concentration (MIC), Staphylococcus epidermidis [KCTC 1917] ([4]; KCTC 1917, 24 h)

IIIIKMHKTRKEKTQSILSAPVGLLTTL [LP7]
>128 µg/mL: Minimum inhibitory concentration (MIC), Escherichia coli [KCTC 1682] ([1]; KCTC 1682, 24 h) | Minimum inhibitory concentration (MIC), Pseudomonas aeruginosa [KCTC 1637] ([2]; KCTC 1637, 24 h) | Minimum inhibitory concentration (MIC), Staphylococcus aureus [KCTC1621] ([3]; KCTC1621, 24 h) | Minimum inhibitory concentration (MIC), Staphylococcus epidermidis [KCTC 1917] ([4]; KCTC 1917, 24 h)

KKLLKKLEKISKKKKKDKKRGRGSPMTSYAILYDGA [LP10]
>128 µg/mL: Minimum inhibitory concentration (MIC), Escherichia coli [KCTC 1682] ([1]; KCTC 1682, 24 h) | Minimum inhibitory concentration (MIC), Pseudomonas aeruginosa [KCTC 1637] ([2]; KCTC 1637, 24 h) | Minimum inhibitory concentration (MIC), Staphylococcus aureus [KCTC1621] ([3]; KCTC1621, 24 h) | Minimum inhibitory concentration (MIC), Staphylococcus epidermidis [KCTC 1917] ([4]; KCTC 1917, 24 h)

PKKVRKSFKKLRNFSNKNSNIYGLPA [LP17]
>128 µg/mL: Minimum inhibitory concentration (MIC), Escherichia coli [KCTC 1682] ([1]; KCTC 1682, 24 h) | Minimum inhibitory concentration (MIC), Pseudomonas aeruginosa [KCTC 1637] ([2]; KCTC 1637, 24 h) | Minimum inhibitory concentration (MIC), Staphylococcus aureus [KCTC1621] ([3]; KCTC1621, 24 h) | Minimum inhibitory concentration (MIC), Staphylococcus epidermidis [KCTC 1917] ([4]; KCTC 1917, 24 h)

NITDYNKKKVRLLPRFIFPLG-NH2 [LP13]
>128 µg/mL: Minimum inhibitory concentration (MIC), Escherichia coli [KCTC 1682] ([1]; KCTC 1682, 24 h) | Minimum inhibitory concentration (MIC), Pseudomonas aeruginosa [KCTC 1637] ([2]; KCTC 1637, 24 h) | Minimum inhibitory concentration (MIC), Staphylococcus aureus [KCTC1621] ([3]; KCTC1621, 24 h) | Minimum inhibitory concentration (MIC), Staphylococcus epidermidis [KCTC 1917] ([4]; KCTC 1917, 24 h)

CC(C)C[C@H](NC(=O)[C@H](CS)NC(=O)[C@@H](NC(=O)CNC(=O)[C@H](CC(=O)O)NC(=O)[C@H](CCC(=O)O)NC(=O)[C@H](CCCCN)NC(=O)[C@H](CCCCN)NC(=O)[C@H](CS)NC(=O)[C@@H](NC(=O)[C@H](CCCNC(=N)N)NC(=O)[C@H](CCCNC(=N)N)NC(=O)[C@@H](N)CCCNC(=N)N)[C@@H](C)O)[C@@H](C)O)C(=O)NCC(=O)N[C@@H](CCCNC(=N)N)C(=O)N[C@@H](CCCCN)C(=O)N[C@H](C(=O)N[C@@H](CCC(N)=O)C(=O)N[C@@H](Cc1ccc(O)cc1)C(=O)N[C@@H](CCCCN)C(=O)N[C@@H](CCCCN)C(=O)N[C@@H](Cc1ccc(O)cc1)C(=O)N[C@@H](CC(C)C)C(=O)N[C@@H](CCC(N)=O)C(=O)N[C@@H](CCCCN)C(=O)N[C@@H](CCCCN)C(N)=O)C(C)C [LP3] (H-RRRTCKKEDGTCLGRKVQYKKYLQKK-NH2; N-terminus and C-terminus assumed)
>128 µg/mL: Minimum inhibitory concentration (MIC), Escherichia coli [KCTC 1682] ([1]; KCTC 1682, 24 h) | Minimum inhibitory concentration (MIC), Pseudomonas aeruginosa [KCTC 1637] ([2]; KCTC 1637, 24 h) | Minimum inhibitory concentration (MIC), Staphylococcus aureus [KCTC1621] ([3]; KCTC1621, 24 h) | Minimum inhibitory concentration (MIC), Staphylococcus epidermidis [KCTC 1917] ([4]; KCTC 1917, 24 h)

FGQKVNCILNFICYKYLRI LV [LP2, putative AMP predicted from the Hirudo nipponia transcriptome]
>128 µg/mL: Minimum inhibitory concentration (MIC), Escherichia coli [KCTC 1682] [1, 5] | Minimum inhibitory concentration (MIC), Pseudomonas aeruginosa [KCTC 1637] [2, 5] | Minimum inhibitory concentration (MIC), Staphylococcus aureus [KCTC1621] [3, 5] | Minimum inhibitory concentration (MIC), Staphylococcus epidermidis [KCTC 1917] [4, 5]

QKFNGKSYALAKKMKKRQVKFLNRILDQL [LP19]
>128 µg/mL: Minimum inhibitory concentration (MIC), Escherichia coli [KCTC 1682] ([1]; KCTC 1682, 24 h) | Minimum inhibitory concentration (MIC), Pseudomonas aeruginosa [KCTC 1637] ([2]; KCTC 1637, 24 h) | Minimum inhibitory concentration (MIC), Staphylococcus aureus [KCTC1621] ([3]; KCTC1621, 24 h) | Minimum inhibitory concentration (MIC), Staphylococcus epidermidis [KCTC 1917] ([4]; KCTC 1917, 24 h)

From article PMC11905058, “Novel Leech Antimicrobial Peptides, Hirunipins: Real‐Time 3D Monitoring of Antimicrobial and Antibiofilm Mechanisms Using Optical Diffraction Tomography” (Advanced Science, 2025)
